Earlier results in patent publication US20050143343A1, “Nutritional supplement for enhancing the production and effect of natural human growth hormone” (priority 2003, published 2005).

System: human growth hormone secretion
Conditions: oral administration, 15 male volunteers; 1200 mg of each constituent, in combination or alone at the same doses

Row | Compound | secretion (release) of human growth hormone
1 | Cl.NCCCC[C@H](N)C(=O)O [L-lysine hydrochloride] | Neither of the two constituents resulted a significant release of human growth hormone
2 | L-arginine-2-pyrrolidone-5-carboxylate | Neither of the two constituents resulted a significant release of human growth hormone
